Consider 12 compounds from ChEMBL document CHEMBL1132204, “Design and synthesis of phosphinamide-based hydroxamic acids as inhibitors of matrix metalloproteinases” (J Med Chem, 1999).

A value given as a limit tells only on which side of the number the result lay.

In one experiment the target is Stromelysin-1 (Homo sapiens, UniProt P08254). Briefly: Inhibition of human matrix metalloprotease-3.
The target in another experiment is T1, Interstitial collagenase (Homo sapiens, UniProt P03956).
T1 sequence (P03956 whole entry): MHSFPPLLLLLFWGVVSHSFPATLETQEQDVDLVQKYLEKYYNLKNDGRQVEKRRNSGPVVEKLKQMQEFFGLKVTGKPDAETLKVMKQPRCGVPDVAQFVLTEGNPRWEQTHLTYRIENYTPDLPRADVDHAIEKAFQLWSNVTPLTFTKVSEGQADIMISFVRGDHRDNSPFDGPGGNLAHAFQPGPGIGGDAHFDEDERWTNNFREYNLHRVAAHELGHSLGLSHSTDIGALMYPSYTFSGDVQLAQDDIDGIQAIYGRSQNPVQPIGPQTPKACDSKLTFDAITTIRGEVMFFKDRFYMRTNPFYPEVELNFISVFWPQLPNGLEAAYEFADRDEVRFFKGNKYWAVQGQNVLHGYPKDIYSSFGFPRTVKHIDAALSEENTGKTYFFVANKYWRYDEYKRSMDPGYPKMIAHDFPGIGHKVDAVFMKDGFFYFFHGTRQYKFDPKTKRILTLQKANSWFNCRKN
Nature of the experiment: Inhibition of human matrix metalloprotease 1.

Experiment [1] deals with 72 kDa type IV collagenase (Homo sapiens, UniProt P08253). Briefly: Inhibition of human matrix metalloprotease 2.
Another experiment deals with Neutrophil collagenase (Homo sapiens, UniProt P22894). Briefly: Inhibition of human Matrix metalloprotease-8.
For experiment [2], the target named is Matrix metalloproteinase-9 (Homo sapiens, UniProt P14780). Nature of the experiment: Inhibition of human matrix metalloprotease 9.
For a further experiment, the target named is T2, Matrilysin (Homo sapiens, UniProt P09237).
T2 sequence (P09237 whole entry): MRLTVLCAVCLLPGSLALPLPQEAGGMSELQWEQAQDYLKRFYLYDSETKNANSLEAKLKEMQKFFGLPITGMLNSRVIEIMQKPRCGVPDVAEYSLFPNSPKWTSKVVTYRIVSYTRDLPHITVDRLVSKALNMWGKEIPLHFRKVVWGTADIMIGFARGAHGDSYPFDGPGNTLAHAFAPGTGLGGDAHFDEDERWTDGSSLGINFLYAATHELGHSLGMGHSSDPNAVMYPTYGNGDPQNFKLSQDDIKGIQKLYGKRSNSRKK
Briefly: Inhibition of human matrix metalloprotease 7.

The next experiment deals with Collagenase 3 (Rattus norvegicus, UniProt P23097).

Stromelysin-1, sequence (P08254 whole entry): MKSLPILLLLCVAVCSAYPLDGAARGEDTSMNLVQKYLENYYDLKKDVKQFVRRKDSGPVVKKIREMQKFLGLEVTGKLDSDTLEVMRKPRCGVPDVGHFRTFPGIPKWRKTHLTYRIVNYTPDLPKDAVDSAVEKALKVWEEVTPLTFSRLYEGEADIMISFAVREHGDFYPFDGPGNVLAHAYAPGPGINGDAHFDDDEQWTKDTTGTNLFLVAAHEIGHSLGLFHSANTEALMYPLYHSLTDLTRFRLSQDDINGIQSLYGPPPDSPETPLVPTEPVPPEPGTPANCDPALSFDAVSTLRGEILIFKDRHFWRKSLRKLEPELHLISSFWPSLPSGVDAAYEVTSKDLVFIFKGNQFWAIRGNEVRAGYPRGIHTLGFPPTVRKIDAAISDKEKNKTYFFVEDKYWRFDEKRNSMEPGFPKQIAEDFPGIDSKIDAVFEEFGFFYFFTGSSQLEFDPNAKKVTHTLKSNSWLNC
Matrix metalloproteinase-9, sequence (P14780 whole entry): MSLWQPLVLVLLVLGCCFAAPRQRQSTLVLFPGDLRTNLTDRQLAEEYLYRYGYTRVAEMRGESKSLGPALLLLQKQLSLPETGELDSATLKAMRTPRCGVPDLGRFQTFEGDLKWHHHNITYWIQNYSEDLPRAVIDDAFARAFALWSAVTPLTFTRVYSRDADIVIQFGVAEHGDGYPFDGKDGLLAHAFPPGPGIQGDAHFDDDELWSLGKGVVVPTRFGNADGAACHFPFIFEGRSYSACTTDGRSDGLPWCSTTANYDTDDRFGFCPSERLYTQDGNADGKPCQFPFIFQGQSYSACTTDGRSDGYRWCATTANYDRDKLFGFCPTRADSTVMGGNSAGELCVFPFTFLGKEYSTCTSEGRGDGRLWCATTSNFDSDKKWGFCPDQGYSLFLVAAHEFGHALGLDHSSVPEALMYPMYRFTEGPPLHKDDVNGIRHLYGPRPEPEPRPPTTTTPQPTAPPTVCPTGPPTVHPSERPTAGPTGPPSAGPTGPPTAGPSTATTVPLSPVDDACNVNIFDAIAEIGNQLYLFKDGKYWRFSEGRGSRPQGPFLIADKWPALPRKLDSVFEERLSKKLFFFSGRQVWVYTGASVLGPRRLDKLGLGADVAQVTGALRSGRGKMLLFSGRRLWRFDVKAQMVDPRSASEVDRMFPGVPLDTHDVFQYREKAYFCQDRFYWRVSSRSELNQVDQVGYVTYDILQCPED
72 kDa type IV collagenase, sequence (P08253 whole entry): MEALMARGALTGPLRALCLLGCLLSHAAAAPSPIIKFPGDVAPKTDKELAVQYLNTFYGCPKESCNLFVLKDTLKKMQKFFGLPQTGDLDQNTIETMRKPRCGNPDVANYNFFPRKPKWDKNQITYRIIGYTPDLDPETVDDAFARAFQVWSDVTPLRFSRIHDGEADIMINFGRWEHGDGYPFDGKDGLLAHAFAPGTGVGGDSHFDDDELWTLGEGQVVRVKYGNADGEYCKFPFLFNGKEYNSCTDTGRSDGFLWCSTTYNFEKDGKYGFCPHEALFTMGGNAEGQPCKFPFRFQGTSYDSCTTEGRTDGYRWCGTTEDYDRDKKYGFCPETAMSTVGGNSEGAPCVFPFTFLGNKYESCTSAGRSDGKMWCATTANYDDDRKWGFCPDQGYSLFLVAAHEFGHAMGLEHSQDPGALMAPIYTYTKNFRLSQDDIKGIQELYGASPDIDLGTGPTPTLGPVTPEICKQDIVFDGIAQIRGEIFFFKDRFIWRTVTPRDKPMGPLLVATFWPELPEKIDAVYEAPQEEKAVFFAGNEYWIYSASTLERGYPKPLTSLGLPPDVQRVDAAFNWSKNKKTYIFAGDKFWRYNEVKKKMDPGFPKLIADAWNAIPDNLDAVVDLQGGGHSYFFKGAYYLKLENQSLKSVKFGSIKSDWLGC
Neutrophil collagenase, sequence (P22894 whole entry): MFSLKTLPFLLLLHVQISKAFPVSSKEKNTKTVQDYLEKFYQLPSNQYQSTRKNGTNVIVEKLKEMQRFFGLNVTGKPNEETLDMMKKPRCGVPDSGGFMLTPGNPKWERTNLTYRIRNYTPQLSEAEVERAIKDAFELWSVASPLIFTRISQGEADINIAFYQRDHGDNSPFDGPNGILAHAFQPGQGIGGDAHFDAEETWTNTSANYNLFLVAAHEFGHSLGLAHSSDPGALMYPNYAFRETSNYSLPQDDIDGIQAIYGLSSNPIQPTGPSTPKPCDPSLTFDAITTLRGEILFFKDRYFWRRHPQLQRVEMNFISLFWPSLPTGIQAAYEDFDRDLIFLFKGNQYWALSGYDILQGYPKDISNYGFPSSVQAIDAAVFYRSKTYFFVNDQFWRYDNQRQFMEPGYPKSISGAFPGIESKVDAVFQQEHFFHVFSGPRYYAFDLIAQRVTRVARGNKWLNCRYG
Description for Collagenase 3: Inhibition of rat matrix metalloprotease 13

With `CCP(=O)(c1ccccc1)N(Cc1ccccc1)[C@H](C)C(=O)NO` (stereo partly specified), the IC50 against Stromelysin-1 stood at 0.7 µM; against Interstitial collagenase, 0.608 µM.
The corresponding values for `C[C@H](C(=O)NO)N(Cc1ccccc1)P(=O)(c1ccccc1)c1ccccc1` are 10.3 µM and 6.79 µM.
Taken in the same sequence, the figures for `O=C(CN(CCc1ccccc1)P(=O)(c1ccccc1)c1ccccc1)NO` were 1.75 µM and 0.854 µM.
The corresponding values for `CCCCCCN([C@H](C)C(=O)NO)[P@](C)(=O)c1ccccc1` are 1.6 µM and 1.29 µM.
Take `CC(C)C[C@H](C(=O)NO)N(Cc1ccccc1)[P@](C)(=O)c1ccccc1`: the IC50 came out at 0.0244 µM at Stromelysin-1; 0.0133 µM in experiment [1]; 0.0053 µM at Neutrophil collagenase; 0.0206 µM in experiment [2]; 0.886 µM against Matrilysin; 0.0205 µM against Interstitial collagenase. For the same compound, the IC50 on Collagenase 3 stood at 0.0074 µM.
In the case of `C[P@@](=O)(c1ccccc1)N(CCc1ccccc1)CC(=O)NO`, the results for the IC50 on Stromelysin-1 and at Interstitial collagenase were 0.7 µM and 0.525 µM, respectively.
On to `C[C@H](C(=O)NO)N(Cc1ccccc1)[P@](C)(=O)c1ccccc1`, for which the half-maximal inhibitory concentration (IC50) against Stromelysin-1 turned out to be 0.0679 µM; in experiment [2], 0.0325 µM; on Matrilysin, 1.86 µM; on Interstitial collagenase, 0.12 µM.
On to `CC(C)C[C@@H](N[P@@](C)(=O)c1ccccc1)C(=O)NO`, for which the IC50 against Stromelysin-1 is 130 µM; on Interstitial collagenase, > 100 µM.
Taken in the same sequence, the figures for `CC[P@@](=O)(c1ccccc1)N(Cc1ccccc1)[C@H](C)C(=O)NO` were 49.3 µM and 33.3 µM.
The corresponding values for `CC(C)C[C@H](C(=O)NO)N(Cc1ccccc1)P(C)(C)=O` are 1.04 µM and 0.518 µM.
With `CC(C)C[C@@H](N[P@](C)(=O)c1ccccc1)C(=O)NO`, the IC50 on Stromelysin-1 was determined as 2.55 µM; on Interstitial collagenase, 2.51 µM.
The corresponding values for `CC(C)C[C@H](C(=O)NO)N(Cc1ccccc1)[P@@](C)(=O)c1ccccc1` are 9.17 µM and 7.12 µM.
